# Results: patent US7666890B2, “Synthesis and herbicidal activity of 1- (2-substituted benzo[d]thiazol-5-yl)-1H-1,2,4-triazol-5(4H)-one derivatives” (Huazhong Normal University, priority 2007, dated 2010)
# What was measured:
# Assay in all cases: Test of herbicidal activities (greenhouse pot method)
# Format in all cases: in vivo
# Settings in all cases: single dose 300 g ai./h, treated before/after germination, 15 days later, greenhouse pot
# Echinochloa crusgalli = tested on: Echinochloa crusgalli
# Protocol: (§1) Garden soil was collected from regions where no pesticide is used and mixed uniformly with mountain soil and organic humus soil at a volume ratio of 1:1:1.
# (§2) Multiple flowerpots each having a diameter of 9.5 cm and a depth of 8 cm were filled with the soil mixture to 3/4 volume. After water was added to the soil and the soil was completely wet, seeds of three grass weeds and three broadleaf weeds were inserted into the flowerpots (10-15 seeds for each weed). After seeding, the seeds were covered with fine oil mixed with sand and having a thickness of 1-3 cm. After the soil absorbed enough water and became saturated, excess water at the bottom of the flowerpot was drained, and the seeds were placed in a greenhouse for growth.
# (§3) The weeds were watered every day so as to keep relative humidity of the soil at approximately 80%, growing temperature of 15-30° C., and air humidity above 50%. As the grass weeds grew to a 2-leaf stage and the broadleaf weeds was in a leaf period, spraying operation […] was performed on the stems and leafs. Planting before germination was performed before spraying. Soil processing was performed before the seeds of the weeds emerged.
# (§4) Six target weeds comprising three grass weeds: Echinochloa crusgalli, Digiatria sanguinalis, Setaria viridis, along with three broadleaf weeds: Brassica juncea, Amaranthus retroflexus, Chenopodium album were treated before/after germination using a so-called “greenhouse pot” method with a single dose. A treating dose was 300 g ai./h. The process was repeated three times, and a blank control was used.
# (§5) A 3WPSHZ-500 type automatic spraying tower with a spraying area of 0.132 m^2, a spray volume of 10 mL, working pressure of 0.2 MPa, and a liquid volume of 40% of maximum was used. After treatment, the weeds were placed in a greenhouse at a temperature of 15-30° C. Reaction symptoms of the weeds were regularly observed, and 15 days later, five reaction levels were determined according to the following inhibition intervals: 90≦A≦100%; 80≦B<90%, 60≦C<80%; 50≦D<60%, E<50%.
# Brassica juncea = tested on: Brassica juncea
# Protocol: as §1, §2, §3, §4, §5
# Digiatria sanguinalis = tested on: Digiatria sanguinalis
# Protocol: as §1, §2, §3, §4, §5
# Setaria viridis = tested on: Setaria viridis
# Protocol: as §1, §2, §3, §4, §5
# Chenopodium album = tested on: Chenopodium album
# Protocol: as §1, §2, §3, §4, §5
# Amaranthus retroflexus = tested on: Amaranthus retroflexus
# Protocol: as §1, §2, §3, §4, §5
smiles,measurement,setting,value
Cc1nn(-c2cc3nc(S(=O)(=O)Cc4ccc(Br)cc4)sc3cc2Cl)c(=O)n1C(F)F [Compound 42],Herbicidal activity Echinochloa crusgalli (inhibition level),Echinochloa crusgalli,E (E < 50%)
same,Herbicidal activity Brassica juncea (inhibition level),Brassica juncea,C (60 ≦ C < 80%)
same,Herbicidal activity Digiatria sanguinalis (inhibition level),Digiatria sanguinalis,A (90 ≦ A ≦ 100%)
same,Herbicidal activity Setaria viridis (inhibition level),Setaria viridis,B (80 ≦ B < 90%)
same,Herbicidal activity Chenopodium album (inhibition level),Chenopodium album,D (50 ≦ D < 60%)
same,Herbicidal activity Amaranthus retroflexus (inhibition level),Amaranthus retroflexus,A (90 ≦ A ≦ 100%)
CCCC[S+]([O-])c1nc2cc(-n3nc(C)n(C(F)F)c3=O)c(F)cc2s1 (stereo not drawn) [Compound 120],Herbicidal activity Echinochloa crusgalli (inhibition level),Echinochloa crusgalli,D (50 ≦ D < 60%)
same,Herbicidal activity Brassica juncea (inhibition level),Brassica juncea,A (90 ≦ A ≦ 100%)
same,Herbicidal activity Digiatria sanguinalis (inhibition level),Digiatria sanguinalis,B (80 ≦ B < 90%)
same,Herbicidal activity Setaria viridis (inhibition level),Setaria viridis,B (80 ≦ B < 90%)
same,Herbicidal activity Chenopodium album (inhibition level),Chenopodium album,B (80 ≦ B < 90%)
same,Herbicidal activity Amaranthus retroflexus (inhibition level),Amaranthus retroflexus,C (60 ≦ C < 80%)
CC[S+]([O-])c1nc2cc(-n3nc(C)n(C(F)F)c3=O)c(F)cc2s1 (stereo not drawn) [Compound 113],Herbicidal activity Echinochloa crusgalli (inhibition level),Echinochloa crusgalli,B (80 ≦ B < 90%)
same,Herbicidal activity Brassica juncea (inhibition level),Brassica juncea,A (90 ≦ A ≦ 100%)
same,Herbicidal activity Digiatria sanguinalis (inhibition level),Digiatria sanguinalis,C (60 ≦ C < 80%)
same,Herbicidal activity Setaria viridis (inhibition level),Setaria viridis,C (60 ≦ C < 80%)
same,Herbicidal activity Chenopodium album (inhibition level),Chenopodium album,D (50 ≦ D < 60%)
same,Herbicidal activity Amaranthus retroflexus (inhibition level),Amaranthus retroflexus,B (80 ≦ B < 90%)
Cc1nn(-c2cc3nc(SCc4ccccc4)sc3cc2F)c(=O)n1C(F)F [Compound 11],Herbicidal activity Echinochloa crusgalli (inhibition level),Echinochloa crusgalli,E (E < 50%)
same,Herbicidal activity Brassica juncea (inhibition level),Brassica juncea,A (90 ≦ A ≦ 100%)
same,Herbicidal activity Digiatria sanguinalis (inhibition level),Digiatria sanguinalis,B (80 ≦ B < 90%)
same,Herbicidal activity Setaria viridis (inhibition level),Setaria viridis,C (60 ≦ C < 80%)
same,Herbicidal activity Chenopodium album (inhibition level),Chenopodium album,C (60 ≦ C < 80%)
same,Herbicidal activity Amaranthus retroflexus (inhibition level),Amaranthus retroflexus,B (80 ≦ B < 90%)
Cc1nn(-c2cc3nc(S(=O)(=O)Cc4cccc(Cl)c4)sc3cc2F)c(=O)n1C [Compound 36],Herbicidal activity Echinochloa crusgalli (inhibition level),Echinochloa crusgalli,C (60 ≦ C < 80%)
same,Herbicidal activity Brassica juncea (inhibition level),Brassica juncea,C (60 ≦ C < 80%)
same,Herbicidal activity Digiatria sanguinalis (inhibition level),Digiatria sanguinalis,C (60 ≦ C < 80%)
same,Herbicidal activity Setaria viridis (inhibition level),Setaria viridis,D (50 ≦ D < 60%)
same,Herbicidal activity Chenopodium album (inhibition level),Chenopodium album,D (50 ≦ D < 60%)
same,Herbicidal activity Amaranthus retroflexus (inhibition level),Amaranthus retroflexus,D (50 ≦ D < 60%)
CSc1nc2cc(-n3nc(C)n(C(F)F)c3=O)c(Br)cc2s1 [Compound 79],Herbicidal activity Echinochloa crusgalli (inhibition level),Echinochloa crusgalli,B (80 ≦ B < 90%)
same,Herbicidal activity Brassica juncea (inhibition level),Brassica juncea,B (80 ≦ B < 90%)
same,Herbicidal activity Digiatria sanguinalis (inhibition level),Digiatria sanguinalis,A (90 ≦ A ≦ 100%)
same,Herbicidal activity Setaria viridis (inhibition level),Setaria viridis,B (80 ≦ B < 90%)
same,Herbicidal activity Chenopodium album (inhibition level),Chenopodium album,C (60 ≦ C < 80%)
same,Herbicidal activity Amaranthus retroflexus (inhibition level),Amaranthus retroflexus,B (80 ≦ B < 90%)
Cc1nn(-c2cc3nc(SCc4ccc(F)cc4)sc3cc2F)c(=O)n1C(F)F [Compound 20],Herbicidal activity Echinochloa crusgalli (inhibition level),Echinochloa crusgalli,C (60 ≦ C < 80%)
same,Herbicidal activity Brassica juncea (inhibition level),Brassica juncea,B (80 ≦ B < 90%)
same,Herbicidal activity Digiatria sanguinalis (inhibition level),Digiatria sanguinalis,C (60 ≦ C < 80%)
same,Herbicidal activity Setaria viridis (inhibition level),Setaria viridis,B (80 ≦ B < 90%)
same,Herbicidal activity Chenopodium album (inhibition level),Chenopodium album,B (80 ≦ B < 90%)
same,Herbicidal activity Amaranthus retroflexus (inhibition level),Amaranthus retroflexus,A (90 ≦ A ≦ 100%)
Cc1nn(-c2cc3nc(S(=O)(=O)Cc4ccccc4)sc3cc2F)c(=O)n1C [Compound 34],Herbicidal activity Echinochloa crusgalli (inhibition level),Echinochloa crusgalli,B (80 ≦ B < 90%)
same,Herbicidal activity Brassica juncea (inhibition level),Brassica juncea,D (50 ≦ D < 60%)
same,Herbicidal activity Digiatria sanguinalis (inhibition level),Digiatria sanguinalis,A (90 ≦ A ≦ 100%)
same,Herbicidal activity Setaria viridis (inhibition level),Setaria viridis,A (90 ≦ A ≦ 100%)
same,Herbicidal activity Chenopodium album (inhibition level),Chenopodium album,C (60 ≦ C < 80%)
same,Herbicidal activity Amaranthus retroflexus (inhibition level),Amaranthus retroflexus,B (80 ≦ B < 90%)
Cc1nn(-c2cc3nc(SCc4ccco4)sc3cc2F)c(=O)n1C(F)F [Compound 29],Herbicidal activity Echinochloa crusgalli (inhibition level),Echinochloa crusgalli,C (60 ≦ C < 80%)
same,Herbicidal activity Brassica juncea (inhibition level),Brassica juncea,C (60 ≦ C < 80%)
same,Herbicidal activity Digiatria sanguinalis (inhibition level),Digiatria sanguinalis,B (80 ≦ B < 90%)
same,Herbicidal activity Setaria viridis (inhibition level),Setaria viridis,B (80 ≦ B < 90%)
same,Herbicidal activity Chenopodium album (inhibition level),Chenopodium album,B (80 ≦ B < 90%)
same,Herbicidal activity Amaranthus retroflexus (inhibition level),Amaranthus retroflexus,C (60 ≦ C < 80%)
Cc1nn(-c2cc3nc(SCc4ccc(Br)cc4F)sc3cc2F)c(=O)n1C(F)F [Compound 22],Herbicidal activity Echinochloa crusgalli (inhibition level),Echinochloa crusgalli,C (60 ≦ C < 80%)
same,Herbicidal activity Brassica juncea (inhibition level),Brassica juncea,D (50 ≦ D < 60%)
same,Herbicidal activity Digiatria sanguinalis (inhibition level),Digiatria sanguinalis,C (60 ≦ C < 80%)
same,Herbicidal activity Setaria viridis (inhibition level),Setaria viridis,C (60 ≦ C < 80%)
same,Herbicidal activity Chenopodium album (inhibition level),Chenopodium album,D (50 ≦ D < 60%)
same,Herbicidal activity Amaranthus retroflexus (inhibition level),Amaranthus retroflexus,B (80 ≦ B < 90%)
CCCCCC[S+]([O-])c1nc2cc(-n3nc(C)n(C(F)F)c3=O)c(F)cc2s1 (stereo not drawn) [Compound 112],Herbicidal activity Echinochloa crusgalli (inhibition level),Echinochloa crusgalli,B (80 ≦ B < 90%)
same,Herbicidal activity Brassica juncea (inhibition level),Brassica juncea,C (60 ≦ C < 80%)
same,Herbicidal activity Digiatria sanguinalis (inhibition level),Digiatria sanguinalis,A (90 ≦ A ≦ 100%)
same,Herbicidal activity Setaria viridis (inhibition level),Setaria viridis,B (80 ≦ B < 90%)
same,Herbicidal activity Chenopodium album (inhibition level),Chenopodium album,B (80 ≦ B < 90%)
same,Herbicidal activity Amaranthus retroflexus (inhibition level),Amaranthus retroflexus,B (80 ≦ B < 90%)
Cc1nn(-c2cc3nc(S(=O)(=O)Cc4ccccc4)sc3cc2Cl)c(=O)n1C(F)F [Compound 37],Herbicidal activity Echinochloa crusgalli (inhibition level),Echinochloa crusgalli,D (50 ≦ D < 60%)
same,Herbicidal activity Brassica juncea (inhibition level),Brassica juncea,D (50 ≦ D < 60%)
same,Herbicidal activity Digiatria sanguinalis (inhibition level),Digiatria sanguinalis,C (60 ≦ C < 80%)
same,Herbicidal activity Setaria viridis (inhibition level),Setaria viridis,E (E < 50%)
same,Herbicidal activity Chenopodium album (inhibition level),Chenopodium album,A (90 ≦ A ≦ 100%)
same,Herbicidal activity Amaranthus retroflexus (inhibition level),Amaranthus retroflexus,C (60 ≦ C < 80%)
CCCS(=O)(=O)c1nc2cc(-n3nc(C)n(C(F)F)c3=O)c(F)cc2s1 [Compound 64],Herbicidal activity Echinochloa crusgalli (inhibition level),Echinochloa crusgalli,B (80 ≦ B < 90%)
same,Herbicidal activity Brassica juncea (inhibition level),Brassica juncea,D (50 ≦ D < 60%)
same,Herbicidal activity Digiatria sanguinalis (inhibition level),Digiatria sanguinalis,A (90 ≦ A ≦ 100%)
same,Herbicidal activity Setaria viridis (inhibition level),Setaria viridis,B (80 ≦ B < 90%)
same,Herbicidal activity Chenopodium album (inhibition level),Chenopodium album,B (80 ≦ B < 90%)
same,Herbicidal activity Amaranthus retroflexus (inhibition level),Amaranthus retroflexus,B (80 ≦ B < 90%)
Cc1nn(-c2cc3nc(SCc4ccc(F)cc4F)sc3cc2F)c(=O)n1C(F)F [Compound 12],Herbicidal activity Echinochloa crusgalli (inhibition level),Echinochloa crusgalli,E (E < 50%)
same,Herbicidal activity Brassica juncea (inhibition level),Brassica juncea,C (60 ≦ C < 80%)
same,Herbicidal activity Digiatria sanguinalis (inhibition level),Digiatria sanguinalis,B (80 ≦ B < 90%)
same,Herbicidal activity Setaria viridis (inhibition level),Setaria viridis,B (80 ≦ B < 90%)
same,Herbicidal activity Chenopodium album (inhibition level),Chenopodium album,E (E < 50%)
same,Herbicidal activity Amaranthus retroflexus (inhibition level),Amaranthus retroflexus,A (90 ≦ A ≦ 100%)
CCSc1nc2cc(-n3nc(C)n(C(F)F)c3=O)c(Br)cc2s1 [Compound 80],Herbicidal activity Echinochloa crusgalli (inhibition level),Echinochloa crusgalli,A (90 ≦ A ≦ 100%)
same,Herbicidal activity Brassica juncea (inhibition level),Brassica juncea,A (90 ≦ A ≦ 100%)
same,Herbicidal activity Digiatria sanguinalis (inhibition level),Digiatria sanguinalis,B (80 ≦ B < 90%)
same,Herbicidal activity Setaria viridis (inhibition level),Setaria viridis,A (90 ≦ A ≦ 100%)
same,Herbicidal activity Chenopodium album (inhibition level),Chenopodium album,E (E < 50%)
same,Herbicidal activity Amaranthus retroflexus (inhibition level),Amaranthus retroflexus,A (90 ≦ A ≦ 100%)
Cc1nn(-c2cc3nc(S(=O)(=O)Cc4ccc(Cl)cc4)sc3cc2Cl)c(=O)n1C(F)F [Compound 41],Herbicidal activity Echinochloa crusgalli (inhibition level),Echinochloa crusgalli,D (50 ≦ D < 60%)
same,Herbicidal activity Brassica juncea (inhibition level),Brassica juncea,C (60 ≦ C < 80%)
same,Herbicidal activity Digiatria sanguinalis (inhibition level),Digiatria sanguinalis,B (80 ≦ B < 90%)
same,Herbicidal activity Setaria viridis (inhibition level),Setaria viridis,C (60 ≦ C < 80%)
same,Herbicidal activity Chenopodium album (inhibition level),Chenopodium album,D (50 ≦ D < 60%)
same,Herbicidal activity Amaranthus retroflexus (inhibition level),Amaranthus retroflexus,C (60 ≦ C < 80%)
